Data from patent US20210189342A1, “COMPOSITIONS AND METHODS FOR MODULATING MONOCYTE AND MACROPHAGE INFLAMMATORY PHENOTYPES AND IMMUNOTHERAPY USES THEREOF” (Verseau Therapeutics, Inc., priority 2018, published 2021).

System: LST1
Assay: siRNA dose response, LST1 mRNA knockdown, bDNA Assay
Assay type: cell-based, human
Conditions: THP-1, 24 hr
Method: (§1) Dose response curves for siRNAs were generated in vitro using a variety of cell lines according to Table 4.
(§2) Briefly, cells were seeded in 96-well plates and reverse transfected with siRNA, Lipofectamine® 2000 (0.5 uL/well; ThermoFisher), and, in some cases, a reporter plasmid (50 ng/well). The reporter plasmid (psiCHECK™-2, Promega) encoded both firefly luciferase and the gene of interest fused to renilla luciferase; silencing of the gene of interest results in proportional silencing of renilla luciferase but leaves firefly luciferase unaffected as an internal control.
(§3) After 24 hr incubation at 37° C., mRNA knockdown was measured using an endpoint assay. For targets without a reporter plasmid, a branched DNA (bDNA) assay was performed according to the manufacturer's instructions (QuantiGene® Singleplex Gene Expression Assay, ThermoFisher) to measure both the target gene and GAPDH (housekeeping gene) mRNA. Data are plotted as siRNA concentration (nM) vs. remaining mRNA (ratio of target gene to GAPDH, normalized to mock siRNA-transfected cells). For targets with a reporter plasmid, a Dual-Glo® Luciferase Assay was performed according to the manufacturer's instructions (Promega) to measure firefly and renilla luciferase expression. Data are plotted as siRNA concentration (nM) vs. remaining mRNA (ratio of renilla to firefly luminescence, normalized to mock siRNA-transfected cells).
(§4) For all dose response curves, a 4-parameter logistic model was applied to determine the IC50 of each siRNA sequence (Table 5 and FIG. 2). Data shown in Table 5 and FIG. 2 represent the mean of quadruplicates, +/−standard deviation.

Compared with “XD-09752: siRNA targeting LST1 (sense 5'-gccuAAAAGAGcAaGGAcudTsdT-3'; antisense 5'-AGUCCUUGCUCUUUuAGGCdTsdT-3'; RNA with 2'-O-methyl and phosphorothioate modifications, case key not given here, as printed in the source, key not given here)”, “XD-09754: siRNA targeting LST1 (sense 5'-caAGGAGGAuccAaGAGcudTsdT-3'; antisense 5'-AGCUCUUGGAUCCUCCUUGdTsdT-3'; RNA with 2'-O-methyl and phosphorothioate modifications, case key not given here, as printed in the source, key not given here)” is 14-fold lower in IC50: 0.737 nM for the first, 0.052 nM for the second.

First: XD-09755: siRNA targeting LST1 (sense 5'-ggAuccAAGAGcugAcuAudTsdT-3'; antisense 5'-AuAGUcAGCUCUUGGAUCCdTsdT-3'; RNA with 2'-O-methyl and phosphorothioate modifications, case key not given here, as printed in the source, key not given here)
Second: XD-09758: siRNA targeting LST1 (sense 5'-ugAucAucAucAAaAcuuAdTsdT-3'; antisense 5'-uAAGUUUUGAUGAUGAUcAdTsdT-3'; as printed in the source, key not given here)
The IC50 of the first is 180-fold lower: 0.046 nM for the first, 8.21 nM for the second.

Compared with “XD-09750: siRNA targeting LST1 (sense 5'-cuGAucAuuucGccuAAAAdTsdT-3'; antisense 5'-UUUuAGGCGAAAUGAUcAGdTsdT-3'; RNA with 2'-O-methyl and phosphorothioate modifications, case key not given here, as printed in the source, key not given here)”, “XD-09756: siRNA targeting LST1 (sense 5'-ucucGAGccuccGuucAAAdTsdT-3'; antisense 5'-UUUGAACGGAGGCUCGAGAdTsdT-3'; RNA with 2'-O-methyl and phosphorothioate modifications, case key not given here, as printed in the source, key not given here)” is 1.8-fold higher in IC50: 3.59 nM for the first, 6.6 nM for the second.

Work on “XD-09751: siRNA targeting LST1 (sense 5'-cauuucGccuAAAaGAGcAdTsdT-3'; antisense 5'-UGCUCUUUuAGGCGAAAUGdTsdT-3'; RNA with 2'-O-methyl and phosphorothioate modifications, case key not given here, as printed in the source, key not given here)” yielded an IC50 of 1.54 nM.

System: CXorf21
Assay: siRNA dose response, CXorf21 mRNA knockdown, bDNA Assay
Assay type: cell-based, human
Conditions: THP-1, 24 hr
Method: as §1, §2, §3, §4

First: XD-10508: siRNA targeting CXorf21 (sense 5'-caAuGuAAAuccAuAGAGAdTsdT-3'; antisense 5'-UCUCuAUGGAUUuAcAUUGdTsdT-3'; as printed in the source, key not given here)
Second: XD-10502: siRNA targeting CXorf21 (sense 5'-cuGucAGAAGGGuaucucAdTsdT-3'; antisense 5'-UGAGAuACCCUUCUGAcAGdTsdT-3'; RNA with 2'-O-methyl and phosphorothioate modifications, case key not given here, as printed in the source, key not given here)
The IC50 of the first is 3.7-fold lower: 1.65 nM for the first, 6.03 nM for the second. The first is the more potent here.

Going from “XD-10506: siRNA targeting CXorf21 (sense 5'-gucuGAAcucAucauGAcAdTsdT-3'; antisense 5'-UGUcAUGAUGAGUUcAGACdTsdT-3'; as printed in the source, key not given here)” to “XD-10505: siRNA targeting CXorf21 (sense 5'-cauuAuGGAcAccguGuuudTsdT-3'; antisense 5'-AAAcACGGUGUCcAuAAUGdTsdT-3'; RNA with 2'-O-methyl and phosphorothioate modifications, case key not given here, as printed in the source, key not given here)”, the IC50 rises from 0.75 nM to 13.1 nM (17-fold). The first is the more potent here.

First: XD-10504: siRNA targeting CXorf21 (sense 5'-gguGAuGGccAuuaAuucAdTsdT-3'; antisense 5'-UGAAUuAAUGGCcAUcACCdTsdT-3'; as printed in the source, key not given here)
Second: XD-10503: siRNA targeting CXorf21 (sense 5'-cuAcGuGAGcuGcaAAucAdTsdT-3'; antisense 5'-UGAUUUGcAGCUcACGuAGdTsdT-3'; RNA with 2'-O-methyl and phosphorothioate modifications, case key not given here, as printed in the source, key not given here)
The IC50 of the first is 2.7-fold higher: 1.76 nM for the first, 0.654 nM for the second.

System: CCR5
Assay: siRNA dose response, CCR5 mRNA knockdown, Dual-Glo Luciferase Assay
Assay type: cell-based, human
Conditions: Hepal-6 + reporter plasmid, 24 hr
Method: as §1, §2, §3, §4

Going from “XD-10551: siRNA targeting CCR5 (sense 5'-ccAuAcAGucAGuaucAAudTsdT-3'; antisense 5'-AUUGAuACUGACUGuAUGGdTsdT-3'; as printed in the source, key not given here)” to “XD-10558: siRNA targeting CCR5 (sense 5'-gcAcAuAcuuGAGacuGuudTsdT-3'; antisense 5'-AAcAGUCUcAAGuAUGUGCdTsdT-3'; as printed in the source, key not given here)”, the IC50 rises from 0.046 nM to 1.05 nM (23-fold). The first is the more potent here.

Going from “XD-10559: siRNA targeting CCR5 (sense 5'-gcAAcGAAGGGAAauGucudTsdT-3'; antisense 5'-AGAcAUUUCCCUUCGUUGCdTsdT-3'; as printed in the source, key not given here)” to “XD-10553: siRNA targeting CCR5 (sense 5'-agGuAuGGuuAAuaAGuuudTsdT-3'; antisense 5'-AAACUuAUuAACcAuACCUdTsdT-3'; as printed in the source, key not given here)”, the IC50 falls from 1.02 nM to 0.361 nM (2.8-fold). The second is the more potent here.

Compared with “XD-10552: siRNA targeting CCR5 (sense 5'-cauuAAAGAuAGucAucuudTsdT-3'; antisense 5'-AAGAUGACuAUCUUuAAUGdTsdT-3'; as printed in the source, key not given here)”, “XD-10550: siRNA targeting CCR5 (sense 5'-ggAAcAAGAuGGAuuAucAdTsdT-3'; antisense 5'-UGAuAAUCcAUCUUGUUCCdTsdT-3'; as printed in the source, key not given here)” is 4.1-fold lower in IC50: 0.07 nM for the first, 0.017 nM for the second.

System: CD33
Assay: siRNA dose response, CD33 mRNA knockdown, bDNA Assay
Assay type: cell-based, human
Conditions: SK-MEL-2, 24 hr
Method: as §1, §2, §3, §4

“XD-09736: siRNA targeting CD33 (sense 5'-ucAccuAuGuuccacAGAAdTsdT-3'; antisense 5'-UUCUGUGGAAcAuAGGUGAdTsdT-3'; as printed in the source, key not given here)” and “XD-09738: siRNA targeting CD33 (sense 5'-ccAGAGcAGGAGugGuucAdTsdT-3'; antisense 5'-UGAACcACUCCUGCUCUGGdTsdT-3'; RNA with 2'-O-methyl and phosphorothioate modifications, case key not given here, as printed in the source, key not given here)” are within 1.5-fold of each other in IC50: 0.176 nM for the first, 0.22 nM for the second.

First: XD-09734: siRNA targeting CD33 (sense 5'-acuccucGGuGcucAuAAudTsdT-3'; antisense 5'-AUuAUGAGcACCGAGGAGUdTsdT-3'; as printed in the source, key not given here)
Second: XD-09732: siRNA targeting CD33 (sense 5'-ggccccAGGAcuAcucAcudTsdT-3'; antisense 5'-AGUGAGuAGUCCUGGGGCCdTsdT-3'; as printed in the source, key not given here)
The IC50 of the first is 7.3-fold lower: 0.74 nM for the first, 5.4 nM for the second.

Compared with “XD-09737: siRNA targeting CD33 (sense 5'-cccAAcAAcuGGuaucuuudTsdT-3'; antisense 5'-AAAGAuACcAGUUGUUGGGdTsdT-3'; RNA with 2'-O-methyl and phosphorothioate modifications, case key not given here, as printed in the source, key not given here)”, “XD-09735: siRNA targeting CD33 (sense 5'-caAcGucAccuAuguuccAdTsdT-3'; antisense 5'-UGGAAcAuAGGUGACGUUGdTsdT-3'; as printed in the source, key not given here)” is 2.4-fold higher in IC50: 0.334 nM for the first, 0.818 nM for the second.

System: IGSF6
Assay: siRNA dose response, IGSF6 mRNA knockdown, Dual-Glo Luciferase Assay
Assay type: cell-based, human
Conditions: Hepa1-6 + reporter plasmid, 24 hr
Method: as §1, §2, §3, §4

First: XD-09649: siRNA targeting IGSF6 (sense 5'-acAuAuAucAucAgGucuudTsdT-3'; antisense 5'-AAGACCUGAUGAuAuAUGUdTsdT-3'; RNA with 2'-O-methyl and phosphorothioate modifications, case key not given here, as printed in the source, key not given here)
Second: XD-09647: siRNA targeting IGSF6 (sense 5'-ggccAuAGAAAcGuuuuAAdTsdT-3'; antisense 5'-UuAAAACGUUUCuAUGGCCdTsdT-3'; as printed in the source, key not given here)
The IC50 of the first is 7.3-fold higher: 0.503 nM for the first, 0.069 nM for the second. The second is the more potent here.

System: CD53
Assay: siRNA dose response, CD53 mRNA knockdown, bDNA Assay
Assay type: cell-based, human
Conditions: THP-1, 24 hr
Method: as §1, §2, §3, §4

Work on “XD-09207: siRNA targeting CD53 (sense 5'-agGGcAAGAucucauuucAdTsdT-3'; antisense 5'-UGAAAUGAGAUCUUGCCCUdTsdT-3'; as printed in the source, key not given here)” yielded an IC50 of 0.038 nM.
